Measured values taken from US11981661B2, “Heterocyclic compounds” (Hoffmann-La Roche Inc., priority 2020, dated 2024).

molecular target: T1, MAGL (Homo sapiens, UniProt Q99685); experiment: 2-AG assay (MAGL inhibitory activity, hydrolysis of 2-arachidonoylglycerol followed by mass spectrometry); type: biochemical; conditions: 50 pM MAGL, 8 μM 2-arachidonoylglycerol, 15 min preincubation, 30 min incubation at RT, concentration range 12.5 μM to 0.8 pM
T1 sequence (Q99685 1-303): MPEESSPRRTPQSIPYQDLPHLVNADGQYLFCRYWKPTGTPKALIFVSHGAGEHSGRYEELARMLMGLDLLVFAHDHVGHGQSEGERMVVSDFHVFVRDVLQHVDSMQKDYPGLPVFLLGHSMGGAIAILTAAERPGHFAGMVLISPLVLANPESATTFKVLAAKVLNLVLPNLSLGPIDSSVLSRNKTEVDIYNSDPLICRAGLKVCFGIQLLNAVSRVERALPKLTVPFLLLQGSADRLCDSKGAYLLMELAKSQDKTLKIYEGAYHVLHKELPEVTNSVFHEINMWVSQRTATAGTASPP
Outline: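 Activity derived from the arachidonic acid/d8-arachidonic acid MS intensity ratio after acetonitrile quench. Reaction: 8 μM 2-AG substrate with 50 pM MAGL, 30 min at RT, following 15 min RT compound preincubation; buffer 50 mM TRIS, 1 mM EDTA, 0.01% Tween; final compound range 12.5 μM to 0.8 pM.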

| SMILES | IC50 [nM] |
| --- | --- |
| CC(C)(Oc1ccc(C2CN(C(=O)CC[C@@H]3COC(=O)N3)C2)cc1)C(F)(F)F [Example 25, (4R)-4-[3-Oxo-3-[3-[4-(2,2,2-trifluoro-1,1-dimethyl-ethoxy)phenyl]azetidin-1-yl]propyl]oxazolidin-2-one] | 1 |
| CC(C)(C)c1ccc(C2CN(C(=O)CCC3CCC(=O)N3)C2)cc1 (single isomer, unassigned; (+)) [Example 4, (+)-5-[3-[3-(4-tert-Butylphenyl)azetidin-1-yl]-3-oxo-propyl]pyrrolidin-2-one] | 5 |
| O=C1N[C@H](CCC(=O)N2CC(OCc3ccc(S(F)(F)(F)(F)F)cc3F)C2)CO1 [Example 26, (4R)-4-[3-[3-[[2-Fluoro-4-(pentafluoro-λ^6-sulfanyl)phenyl]methoxy]azetidin-1-yl]-3-oxo-propyl]oxazolidin-2-one] | 4 |
| O=C1N[C@H](CCC(=O)N2CCC(CNS(=O)(=O)c3ccc(C(F)(F)F)cc3)CC2)CO1 [Example 158, N-[[1-[3-[(4R)-2-Oxooxazolidin-4-yl]propanoyl]-4-piperidyl]methyl]-4-(trifluoro-methyl)benzene-sulfonamide] | 582 |
| O=C1N[C@H](COC(=O)N2CC(c3ccc(Oc4ccc(F)cc4)cc3)C2)CO1 [Example 58, [(4S)-2-Oxooxazolidin-4-yl]methyl 3-[4-(4-fluorophenoxy)phenyl]azetidine-1-carboxylate] | 4 |
| O=C1N[C@H](CCC(=O)N2CC(OCc3cccc(S(=O)(=O)C(F)(F)F)c3)C2)CO1 [Example 167, (4R)-4-[3-Oxo-3-[3-[[3-(trifluoro-methylsulfonyl)phenyl]methoxy]azetidin-1-yl]propyl]oxazolidin-2-one] | 27 |
| O=C1N[C@H](CCC(=O)N2CC3(CCN(S(=O)(=O)c4ccc(C(F)(F)F)cc4F)CC3)C2)CO1 [Example 143, (4R)-4-[3-[7-[2-Fluoro-4-(trifluoromethyl)phenyl]sulfonyl-2,7-diazaspiro [3.5]nonan-2-yl]-3-oxo-propyl]oxazolidin-2-one] | 190 |
| CS(=O)(=O)c1cccc(CC2CC3(C2)CN(C(=O)CC[C@@H]2COC(=O)N2)C3)c1 [Example 179, (4R)-4-[3-[6-[(3-Methyl-sulfonylphenyl)methyl]-2-azaspiro[3.3]heptan-2-yl]-3-oxo-propyl]oxazolidin-2-one] | 46 |
| CN(CCc1cnn[nH]1)C(=O)N1CC(OCc2ccc(C(F)(F)F)cc2F)C1 [Example 66, 3-[[2-Fluoro-4-(trifluoromethyl)phenyl]methoxy]-N-methyl-N-[2-(1H-triazol-5-yl)ethyl]azetidine-1-carboxamide] | 13 |
| CS(=O)(=O)c1cccc(CN2CCC3(CC2)CN(C(=O)CC[C@@H]2COC(=O)N2)C3)c1 [Example 193, (4R)-4-[3-[7-[(3-Methyl-sulfonylphenyl)methyl]-2,7-diazaspiro[3.5]nonan-2-yl]-3-oxo-propyl] oxazolidin-2-one] | 794 |
| CS(=O)(=O)c1cc(Cl)ccc1-c1ccc(C2CN(C(=O)CCC3CNC(=O)N3)C2)cc1 (stereo not shown) [Example 216, 4-[3-[3-[4-(4-Chloro-2-methylsulfonyl-phenyl)phenyl]azetidin-1-yl]-3-oxo-propyl]imidazolidin-2-one] | 68 |
| CS(=O)(=O)c1cc(F)cc(CC2CC3(C2)CN(C(=O)CC[C@@H]2COC(=O)N2)C3)c1 [Example 184, (4R)-4-[3-[6-[(3-Fluoro-5-methylsulfonyl-phenyl)methyl]-2-azaspiro[3.3]heptan-2-yl]-3-oxo-propyl]oxazolidin-2-one] | 59 |
| O=C1NCC(CCC(=O)N2CC3(CC(Cc4ccc(C(F)(F)F)nc4)C3)C2)N1 (stereo not shown) [Example 213, 4-[3-Oxo-3-[6-[[6-(trifluoromethyl)-3-pyridyl]methyl]-2-azaspiro[3.3]heptan-2-yl]propyl]imidazolidin-2-one] | 2250 |
| CS(=O)(=O)c1cc(F)ccc1OC1CCC2(CC1)CN(C(=O)CC[C@@H]1COC(=O)N1)C2 [Example 137, (4R)-4-[3-[7-(4-Fluoro-2-methyl-sulfonyl-phenoxy)-2-azaspiro[3.5]nonan-2-yl]-3-oxo-propyl] oxazolidin-2-one] | 43 |
| O=C1N[C@H](CCC(=O)N2CC3(C2)CN(S(=O)(=O)c2ccc(OC(F)(F)F)cc2)C3)CO1 [Example 150, (4R)-4-[3-Oxo-3-[2-[4-(trifluoro-methoxy)phenyl]sulfonyl-2,6-diazaspiro[3.3]heptan-6-yl]propyl] oxazolidin-2-one] | 2140 |
| O=C1NCC(CCC(=O)N2CC(OCc3ccc(C(F)(F)F)cc3F)C2)N1 (stereo not shown) [Example 215, 4-[3-[3-[[2-Fluoro-4-(trifluoromethyl)phenyl]methoxy]azetidin-1-yl]-3-oxo-propyl]imidazolidin-2-one] | 860 |
| COCCN(c1ccc(C2CN(C(=O)CC[C@@H]3COC(=O)N3)C2)cc1)c1cccnc1 [Example 96, (4R)-4-[3-[3-[4-[2-Methoxyethyl(3-pyridyl)amino]phenyl]azetidin-1-yl]-3-oxo-propyl]oxazolidin-2-one] | 2 |
| O=C1N[C@H](CCC(=O)N2CC(c3ccc(-c4nc(C5CC5)n[nH]4)cc3)C2)CO1 [Example 177, (4R)-4-[3-[3-[4-(3-Cyclo-propyl-1H-1,2,4-triazol-5-yl)phenyl]azetidin-1-yl]-3-oxo-propyl]oxazolidin-2-one] | 353 |
| O=C1N[C@H](CCC(=O)N2CC(c3ccc(N4CC(OCC(F)(F)F)C4)cc3)C2)CO1 [Example 99, (4R)-4-[3-Oxo-3-[3-[4-[3-(2,2,2-trifluoro-ethoxy)azetidin-1-yl]phenyl]azetidin-1-yl]propyl] oxazolidin-2-one] | 5 |
| O=C1N[C@H](CCC(=O)N2CC3(CCC(Cc4cnc(C(F)(F)F)cn4)CC3)C2)CO1 [Example 190, (4R)-4-[3-Oxo-3-[7-[[5-(trifluoro-methyl)pyrazin-2-yl]methyl]-2-azaspiro[3.5]nonan-2-yl]propyl] oxazolidin-2-one] | 140 |
| CS(=O)(=O)c1ccc(C(c2ccccc2)C2CCN(C(=O)CC[C@@H]3COC(=O)N3)CC2)cc1 (single isomer, unassigned) [Example 84, (−)- or (+)-(−)-(4R)-4-[3-[4-[(4-Methyl-sulfonylphenyl)-phenyl-methyl]-1-piperidyl]-3-oxo-propyl]oxazolidin-2-one] | 294 |
| CC(C)(C)c1ccc(C2CN(C(=O)CC[C@@H]3COC(=O)N3)C2)nc1 [Example 72, (4R)-4-[3-[3-(5-tert-Butyl-2-pyridyl)azetidin-1-yl]-3-oxo-propyl]oxazolidin-2-one] | 7 |
| O=C1N[C@H](CCC(=O)N2CC(c3cnc(C4CC5(CCC5)C4)cn3)C2)CO1 [Example 164, (4R)-4-[3-Oxo-3-[3-(5-spiro[3.3]heptan-2-ylpyrazin-2-yl)azetidin-1-yl]propyl] oxazolidin-2-one] | 12 |
| O=C(CCCc1cnn[nH]1)N1CC(c2ccc(N3CCC(C(F)(F)F)C3)nc2)C1 (racemic) [Example 45, rac-4-(1H-Triazol-5-yl)-1-[3-[6-[3-(trifluoro-methyl)pyrrolidin-1-yl]-3-pyridyl]azetidin-1-yl]butan-1-one] | 321 |
| O=C1N[C@H](CCC(=O)N2CC(c3ccc(C4(C(F)(F)F)CC4)cc3)C2)CO1 [Example 22, (4R)-4-[3-Oxo-3-[3-[4-[1-(trifluoromethyl)cyclo-propyl]phenyl]azetidin-1-yl]propyl]oxazolidin-2-one] | 1 |
